Test results published in the NIST ThermoML archive (doi:10.1021/je700621d).
± gives the expanded uncertainty stated by the source.

Assays:
[1] = for mass density: Liquid, Vibrating tube method; for surface tension liquid-gas: Pendant drop shape
[2] = xn = mol fraction of the nth substance listed; conditions: 298 K; for surface tension liquid-gas: Pendant drop shape; for mass density: 101 kPa, Liquid, Vibrating tube method

CCCCCCCC[N+](C)(CCCCCCCC)CCCCCCCC.O=S(=O)([N-]S(=O)(=O)C(F)(F)F)C(F)(F)F
[1], 101.33 kPa
Conditions	mass density [kg/m3]
278.15 K	1119.8 ± 8.8
288.15 K	1112.2 ± 8.7
298.15 K	1104.6 ± 8.5
308.15 K	1097.2 ± 8.4
318.15 K	1089.6 ± 8.3
328.15 K	1082.1 ± 8.2

[1]
Conditions	surface tension liquid-gas [mN/m]
278.75 K	29.65 ± 0.82
288.15 K	28.92 ± 0.8
298.15 K	27.93 ± 0.77
308.15 K	27.02 ± 0.75
318.15 K	26.56 ± 0.74
328.15 K	26.03 ± 0.73

CCCC[n+]1ccn(C)c1.O=S(=O)([N-]S(=O)(=O)C(F)(F)F)C(F)(F)F + CCCCO
[2]
Conditions	mass density [kg/m3]	surface tension liquid-gas [mN/m]
x1 = 0.0941	962.2 ± 0.2	23.98 ± 0.27
x1 = 0.2025	1087.1 ± 0.5	23.88 ± 0.29
x1 = 0.2045	1089 ± 0.5	23.8 ± 0.29
x1 = 0.306	1172.6 ± 1.1	24.16 ± 0.33
x1 = 0.3064	1172.5 ± 1.1	24.25 ± 0.33
x1 = 0.3964	1230.5 ± 1.8	25.17 ± 0.37
x1 = 0.5002	1283.6 ± 3	26.79 ± 0.45
x1 = 0.5977	1323.5 ± 4.5	28.32 ± 0.52
x1 = 0.6848	1354.8 ± 6.1	29.56 ± 0.6
x1 = 0.8016	1388.6 ± 8.7	30.96 ± 0.7
x1 = 0.8986	1413.4 ± 11	31.94 ± 0.79
x1 = 1	1436.4 ± 14	32.8 ± 0.88

CCCCO [butan-1-ol]
Conditions	surface tension liquid-gas [mN/m]
[1], 298 K	23.96 ± 0.26

Conditions	mass density [kg/m3]
[1], 298 K, 101.3 kPa	805.3 ± 0.2

CCOS(=O)(=O)[O-].CCn1cc[n+](C)c1 [1-ethyl-3-methylimidazolium ethyl sulfate]
[1], 101.33 kPa
Conditions	mass density [kg/m3]
278.15 K	1255.1 ± 11
288.15 K	1248.1 ± 11
298.15 K	1241.1 ± 11
308.15 K	1234.2 ± 11
318.15 K	1227.3 ± 11
328.15 K	1220.6 ± 10

[1]
Conditions	surface tension liquid-gas [mN/m]
278.75 K	46.7 ± 1.2
288.15 K	46.04 ± 1.2
298.15 K	45.43 ± 1.2
308.15 K	44.72 ± 1.2
318.15 K	43.74 ± 1.2
328.15 K	43.37 ± 1.2

CCCO [propan-1-ol] + CCCC[n+]1ccn(C)c1.O=S(=O)([N-]S(=O)(=O)C(F)(F)F)C(F)(F)F
[2], x2 = 0
Conditions	mass density [kg/m3]	surface tension liquid-gas [mN/m]
–	799 ± 0.2	23.34 ± 0.26

CCCC[N+](C)(C)C.O=S(=O)([N-]S(=O)(=O)C(F)(F)F)C(F)(F)F [butyltrimethylammonium bis(trifluoromethylsulfonyl)imide]
[1], 101.33 kPa
Conditions	mass density [kg/m3]
278.15 K	1412.3 ± 14
288.15 K	1403 ± 14
298.15 K	1394 ± 14
308.15 K	1385 ± 14
318.15 K	1376.1 ± 13
328.15 K	1367.3 ± 13

[1]
Conditions	surface tension liquid-gas [mN/m]
278.75 K	33.31 ± 0.91
288.15 K	33.04 ± 0.9
298.15 K	32.46 ± 0.89
308.15 K	32 ± 0.88
318.15 K	31.21 ± 0.86
328.15 K	30.64 ± 0.84
